Source: patent US7863304B2, “Analogs of glycyl-prolyl-glutamate” (priority 2001, dated 2011)
Where a SMILES comes first, the peptide text is derived from it. [ ]: non-standard residue; d: D form. ξ: configuration not given here. Hyp = O=C(O)[C@@H]1C[C@@H](O)CN1; Nva = CCC[C@H](N)C(=O)O; ξPip = O=C(O)C1CCCCN1; Aib = CC(C)(N)C(=O)O

Tests used:
striatal cells = assay: Striatal cell culture, 30 nM okadaic acid injury, MTT viability; format: cell-based, Wistar rats; settings: for neuroprotection against okadaic acid induced loss of cell viability: okadaic acid (30 nM), 24 h, MTT, striatal cell culture (FIGS. 3, 4, 6)
Source text: (§1) Two pregnant Wistar rats (gestational day 18) underwent Caesarean section according to approved procedures from the Animal Ethics Committee of the University of Auckland. The Wistar dams were anaesthetised in a CO2-enriched atmosphere and sacrificed by subsequent spinal cord dislocation. The embryos were removed from their embryonic sacs and decapitated. After incisions into the skull with fine scissors, the embryonic brain was removed with a fine spatula. Striatal tissue was separated from neocortical tissue under the microscope and placed into serum-free DMEM/F-12 medium supplemented with penicillin/streptomycin (100 u/mL). Tissue underwent 15 trituration steps using a P1000 pipettor to obtain dissociated cells, which were centrifuged for 5 min at 250 G (4° C.) and the supernatant was discarded. Cells were re-suspended into 1 mL DMEM/F-12 medium and were kept on ice. Cell suspension (400,000 cells/cm2) was applied to 0.1 mg/mL poly-L-lysine pre-coated 96-well plates (3 h at 37° C.) and the volume was increased up to 100 μL with DMEM/F-12+5% FBS. Cells were cultivated at 37° C. in 100% humidity in a 5% CO2 atmosphere. After 24 h the medium was changed to serum-free Neurobasal/B27. Cell medium was changed every 3 days and maintained until 8 days in vitro (DWV).
(§2) Striatal cells were injured after 2, 3, 7 or 8 days in vitro. The injury paradigm involved 30 nM okadaic acid treatment with simultaneous administration of a GPE analog of this invention for 24 h. 1 μL of 3 μM okadaic acid stock solution together with 1 μL of GPE analog dissolved in PBS (vehicle received 2 μL of PBS) were incubated for 24 h with the striatal cells. Subsequently, 20 μL MTT (5 mg/mL in PBS) was added for 4 h. The reaction was terminated by addition of 100 μL 4% sodium dodecyl sulfate (SDS) solution. After 16-24 h incubation time, photometric extinction values are read at 595 nm. The difference between the vehicle and the okadaic acid injury condition was calculated. This value was set as the theoretical 100% recovery value. Measured values for the tested compounds were expressed in percentage of the 100% value. The unpaired Student's t-test was used for statistical analysis.

cortical cell culture = assay: Rat cortical dissociated cell culture, okadaic acid injury, MTT viability; settings: 100 nM okadaic acid
Procedure: (§3) Embryonic E18/19 wistar rats were used for the generation of dissociated cortical cell cultures. The rear portion (occipital cortex-area 17/18 of the visual cortex) of the cortical plate is used for the generation of the cultures. Cells were grown for 3-10 DIV in one part of serum-free medium and one part of rat cortex-derived cultivated astrocytic-conditioned medium (ACM).
(§4) 96-well tissue culture plates were coated with 0.2 mg/ml poly-L-lysine followed by 2 μg/ml laminin. Subsequently 60 μl of ACM were added per well and plate was stored at 37° C. until plating of cortical cells.
(§5) Whole cortices of P1/2 wistar pups were collected into separate tubes containing 4 ml DMEM-1 cortex per tube. The tissues were triturated a few times with a 5 ml sterile pipette to break up them up into smaller pieces. Each tube was poured separately into a reagent reservoir and triturated once with a 5 ml syringe and 18 gauge drawing needle. The mixture was then filtered through a 100 μm cell strainer into a 50 ml centrifuge tube. The strainer was washed with 5 ml DMEM. The cell solution was extended with DMEM to 50 ml of volume. The solution was then centrifuged for 5mins at 350g at RT. The cells were resuspended in 40 ml of DMEM+10% FBS. The cells were then reconstituted into a 75 cm^2 cell flask and incubated at 37° C./10% CO2/100% humidity in […]. […] The medium was replaced after 1 day with fresh DMEM+10% FBS. The cell growth was monitored and media+FBS replaced twice weekly until the cells were confluent (˜10-14 days). Once the confluency reached, the cells were washed once with 20 ml sterile PBS. Cells were incubated for 3 days in 30 ml Neurobasal medium+B27 supplement to maintain cells under serum-free conditions. Cell supernatant was then filter through a 0.22 μm sterile filter and frozen in aliquots at −80° C.
(§6) The tissues were stored in PBS+glucose solution on ice until all dissection was completed. Tissue material was centrifuged at 350g for 5 mins at RT. The supernatant was removed and cell pellets were incubated in 5 ml trypsin/EDTA solution (Invitrogen) for 8 mins at 37° C. Proteolysis was stopped by addition of one part of DMEM+10% FBS. Subsequently, the tissued were centrifuged at 350g for 5 mins at RT. The pellet was collected, washed (centrifugation) twice in NB/B27 medium (Invitrogen) and resuspended in 1 ml NB/B27 medium. Tissue was transferred into a petri dish and triturated twice with a glass pasteur pipette attached to a pipette to break up large pieces of tissue. The tissue was then triturated twice using a 1 ml syringe and 22 gauge needle and passed through a 100 μm cell strainer to remove remaining large tissue pieces. The cells were washed with 1 ml NB/B27. The number of viable neurons was counted and the percentage of cell viability determined. […] The cortical cells were incubated at 37° C./10% CO2/100% humidity.
(§7) In order to induce neuronal injury the phosphatase 1/2A antagonist okadaic acid is added for 24 hrs. Simultaneously, an analog of GPE of this invention was administered. After 24 hrs metabolic activity was measured by addition of MTT for 2-4 hrs followed by addition of SDS-solution and photometric end point measurement at 595 nm.
(§8) Student's unpaired t-test is used for testing for statistical significance when comparing uninjured controls with the injured neuronal rescue agent containing conditions.

cerebellar cells = assay: Cerebellar microexplant culture, 3-NP/glutamate injury, count of cells with neurites; format: cell-based, Wistar rats; settings: toxin alone, cerebellar cell culture (FIG. 7)
Procedure: Postnatal day 3, 4 or 8 Wistar rats were used for the study. The rats were sacrificed and placed in ice for 1 minute, decapitated and the cerebellum removed and placed on ice. Cerebellum tissue was placed in 1 ml of 0.65% glucose-supplemented PBS (10 μl 65% stock D (+)glucose/1 ml PBS) in a large Petri dish, chopped up into smaller sections and triturated with a 1 ml insulin syringe via a 23 gauge (0.4 mm) needle, and then squirted back into the glucose solution in the Petri dish. The tissue was sieved through (125 µm pore size) and centrifuged (2 minutes at 60×g) twice to exchange the medium into serum-free BSA-supplemented START V medium (Biochrom, Germany). […]
After explants were exposed to a GPE analog of this invention for the study period, cells were then rinsed in PBS and then fixed in increasing concentrations of paraformaldehyde (500 μl of 0.4% PFA was applied; then 1.2% PFA; then 3% PFA and finally 4% PFA (each fixation step: 2-3 minutes). Finally, the microexplants were rinsed in PBS. Neurons in the explants were then evaluated for morphology (presence of neurites) and counted as live cells per microscopic field. Four fields displaying highest cell density were counted per cover slip and the data presented as mean ±standard error of the mean (SEM); n=4 each. Statistical significance was evaluated by using the non-paired Student's t-test.

[1] = Striatal cell culture, 30 nM okadaic acid injury, MTT viability; format: cell-based, Wistar rats; settings: Wistar, rat; okadaic acid alone, other studies FIGS. 2-6 (striatal and cortical cultures); read-out: decrease in numbers of viable cells
Source text: as §1, §2

[2] = Rat cortical dissociated cell culture, okadaic acid injury, MTT viability; settings: Wistar, rat
Procedure: as §3, §4, §5, §6, §7, §8

[3] = system: N-methyl-D-aspartate (NMDA) receptor; settings: background statement; cited from earlier work
IGF-1 receptor = IGF-1 receptor (Homo sapiens, UniProt P08069); settings: background statement; cited from earlier work
[4] = 24 hrs, MTT, cortical cell culture (FIG. 1)

Sequence of IGF-1 receptor (P08069 31-736 limits assumed): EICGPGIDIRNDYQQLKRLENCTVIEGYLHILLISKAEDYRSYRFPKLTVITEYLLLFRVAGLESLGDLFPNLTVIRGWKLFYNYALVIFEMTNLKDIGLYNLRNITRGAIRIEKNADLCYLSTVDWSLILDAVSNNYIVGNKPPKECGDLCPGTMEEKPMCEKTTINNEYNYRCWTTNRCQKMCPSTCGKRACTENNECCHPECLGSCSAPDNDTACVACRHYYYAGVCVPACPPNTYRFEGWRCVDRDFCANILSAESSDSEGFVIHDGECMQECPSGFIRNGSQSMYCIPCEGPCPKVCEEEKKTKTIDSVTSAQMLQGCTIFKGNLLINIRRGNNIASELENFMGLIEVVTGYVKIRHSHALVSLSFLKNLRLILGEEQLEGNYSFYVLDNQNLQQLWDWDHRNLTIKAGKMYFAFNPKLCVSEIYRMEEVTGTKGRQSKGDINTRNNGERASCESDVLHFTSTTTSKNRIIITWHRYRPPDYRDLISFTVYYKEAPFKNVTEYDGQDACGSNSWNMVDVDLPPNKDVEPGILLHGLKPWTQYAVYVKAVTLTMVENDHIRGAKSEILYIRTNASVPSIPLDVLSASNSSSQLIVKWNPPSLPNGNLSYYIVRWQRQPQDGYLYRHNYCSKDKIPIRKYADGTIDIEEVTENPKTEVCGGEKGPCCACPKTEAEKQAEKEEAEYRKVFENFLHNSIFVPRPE
Sequence of IGF-1 receptor (P08069 741-1367 partner limits assumed): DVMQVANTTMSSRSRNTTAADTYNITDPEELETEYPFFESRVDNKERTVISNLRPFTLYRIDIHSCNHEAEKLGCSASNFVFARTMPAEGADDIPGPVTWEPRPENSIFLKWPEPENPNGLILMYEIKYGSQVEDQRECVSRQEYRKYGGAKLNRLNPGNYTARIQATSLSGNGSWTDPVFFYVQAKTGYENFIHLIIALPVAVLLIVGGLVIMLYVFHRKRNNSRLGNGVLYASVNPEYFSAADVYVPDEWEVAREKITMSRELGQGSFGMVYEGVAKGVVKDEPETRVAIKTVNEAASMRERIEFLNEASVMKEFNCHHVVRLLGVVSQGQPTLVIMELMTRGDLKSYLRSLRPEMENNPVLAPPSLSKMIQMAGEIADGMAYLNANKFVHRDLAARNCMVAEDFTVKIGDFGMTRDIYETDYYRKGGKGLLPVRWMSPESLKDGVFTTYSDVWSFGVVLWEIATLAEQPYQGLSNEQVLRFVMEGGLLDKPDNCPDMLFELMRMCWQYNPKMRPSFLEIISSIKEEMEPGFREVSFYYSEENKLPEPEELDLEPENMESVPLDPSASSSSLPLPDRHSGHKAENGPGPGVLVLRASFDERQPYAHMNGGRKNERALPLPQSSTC

In the case of `NCC(=O)N1C[C@H](O)C[C@H]1C(=O)N[C@@H](CCC(=O)O)C(=O)O` [analog 60, Glycyl-trans-4-hydroxy-L-prolyl-L-glutamic acid] (H-Gly-[Hyp]-Glu-OH), the “statistical significance of neuroprotective effect” value (striatal cells; at concentrations of 100 nM and 100 μM and 1 mM, 30 nM okadaic acid, striatal (FIG. 3)) was “statistically significant effects” and the “neuroprotection against okadaic acid induced loss of cell viability” value (striatal cells) was “neuroprorotective”.

In the case of `CC1(C)SCN(C(=O)CN)[C@@H]1C(=O)N[C@@H](CCC(=O)O)C(=O)O` [analog 49, Glycyl-L-thia-5,5-dimethylprolyl-L-glutamic acid], the “neuroprotection against okadaic acid induced loss of cell viability” value (cortical cell culture; [4]) was “neuroprotective” and the “protection against loss of neural cell viability caused by okadaic acid” value (cortical cell culture; concentration range 10 nM to 10 μM, cortical cell culture (FIG. 1)) was 100%.

With `CCC[C@H](NC(=O)[C@@H]1CCCN1C(=O)CN)C(=O)O` [analog 65, Glycyl-L-prolyl-L-Norvaline] (H-Gly-Pro-[Nva]-OH) the “protection against loss of cell viability induced by okadaic acid” value (cortical cell culture; at nearly every concentration tested (10 nM to 1 mM), cortical cell culture (FIG. 5)) was 100% and the “neuroprotection against okadaic acid induced loss of cell viability” value (cortical cell culture; broad range of concentrations, 10 nM to 1 mM, cortical cell culture (FIG. 5)) was “neuroprotective”.

In the case of `C=C1[C@@H](O)[C@@H]2O[C@]3(CC[C@H](/C=C/[C@@H](C)[C@@H]4CC(C)=C[C@@]5(O[C@H](C[C@@](C)(O)C(=O)O)CC[C@H]5O)O4)O3)CC[C@H]2O[C@@H]1[C@@H](O)C[C@H](C)[C@H]1O[C@@]2(CCCCO2)CC[C@H]1C` [okadaic acid, reference compound], the “decrease in the number of cells having neurites” value (cerebellar cells) was “over 80%”, the cytotoxicity at 24 h [1] was 10 to 50% and the cytotoxicity at 24 h [2] was roughly 30%.

For `NCC(=O)N1CCCCC1C(=O)N[C@@H](CCC(=O)O)C(=O)O` (stereo partly drawn) [analog 66, Glycyl-D,L-pipecolinyl-L-glutamic Acid] (H-Gly-[ξPip]-Glu-OH), the “statistical significance of neuroprotective effect” value (striatal cells; at concentrations of 100 nM, 100 mM and 1 mM, okadaic acid, striatal (FIG. 6)) was “statistically significant effects” and the “neuroprotection against okadaic acid induced loss of cell viability” value (striatal cells) was “neuroprotective”.

In the case of `CC(C)(N)C(=O)N1CCC[C@H]1C(=O)N[C@@H](CCC(=O)O)C(=O)O` [analog 64, Aminoisobutryl-L-prolyl-L-glutamic acid] (H-[Aib]-Pro-Glu-OH), the “protection from the loss of neural cell viability induced by okadaic acid” value (striatal cells; at 1 mM, 30 nM okadaic acid, striatal (FIG. 4)) was “complete protection”, the “neuroprotective efficacy compared with GPE” value (striatal cells; concentration range 100 μM to 1 mM, 30 nM okadaic acid, striatal (FIG. 4)) was “more effective than GPE” and the “neuroprotection against okadaic acid induced loss of cell viability” value (striatal cells) was “neuroprotective”.

In the case of `NCC(=O)N1CCC[C@H]1C(=O)N[C@@H](CCC(=O)O)C(=O)O` [GPE, Glycyl-L-Prolyl-L-Glutamate], the “binding affinity to NMDA receptor” value [3] is given as “low affinity”, the “binding to IGF-1 receptor” value (IGF-1 receptor) is given as “does not bind” and the “neuroprotection against okadaic acid induced loss of cell viability” value (cortical cell culture; [4]) is given as “reversed the okadaic acid induced loss of cell viability”.
